From publication PMC11364541 (Nature Communications, 2024) come the findings set out here.

The assay addresses T1, SLC13A3 (Homo sapiens, UniProt Q8WWT9).
T1 sequence (Q8WWT9 1-602): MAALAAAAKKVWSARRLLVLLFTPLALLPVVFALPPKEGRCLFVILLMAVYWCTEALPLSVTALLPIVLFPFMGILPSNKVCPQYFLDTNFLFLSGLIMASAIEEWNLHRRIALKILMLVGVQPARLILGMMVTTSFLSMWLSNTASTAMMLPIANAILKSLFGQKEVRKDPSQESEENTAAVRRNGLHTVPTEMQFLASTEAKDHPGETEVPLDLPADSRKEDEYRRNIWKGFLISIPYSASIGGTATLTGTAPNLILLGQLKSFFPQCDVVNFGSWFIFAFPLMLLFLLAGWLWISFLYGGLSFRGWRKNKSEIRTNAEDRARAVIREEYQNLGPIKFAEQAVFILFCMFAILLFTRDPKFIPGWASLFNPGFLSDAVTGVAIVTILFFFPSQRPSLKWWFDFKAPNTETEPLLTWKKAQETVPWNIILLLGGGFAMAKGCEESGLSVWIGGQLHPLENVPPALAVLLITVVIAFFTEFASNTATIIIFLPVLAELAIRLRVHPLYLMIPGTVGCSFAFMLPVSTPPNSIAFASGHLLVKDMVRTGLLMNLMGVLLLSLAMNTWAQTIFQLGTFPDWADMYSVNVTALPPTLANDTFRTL
The assay can be described thus: inhibition of […]-succinate uptake in SLC13A3-transfected HEK293 cells. Type of assay: cell-based.

Molecules are shown by their SMILES.

The compound `N[C@@H](CCC(=O)N[C@@H](CS)C(=O)NCC(=O)O)C(=O)O` [GSH, glutathione] yielded an IC50 of 1890 µM.
